Assay results from patent US11733161B2, “Method of determining concentration of subject based on fraction bound measurement” (Korea Advanced Institute of Science and Technology, priority 2019, dated 2023).
Where two headings read alike, the source gives them in different places.

Assay: real-time WGM (SRSN) resonator measurement of the streptavidin-biotin interaction, Langmuir model analysis
Type: binding
Details: for association rate: fit of Equation 7
From the text: An interaction between streptavidin and biotin may be measured. […] Prior to experiments, the SRSN resonator may be pre-processed using biotin. When streptavidin of a DPBS flows into a fluid channel, streptavidin starts to attach biotin on a surface of the optical active resonator. Streptavidin that has closely attached biotin on the surface of the resonator may increase the length of an optical path of a resonance mode. Accordingly, a resonance movement may occur because the resonance state of the optical active resonator is changed.
A beam of a 457.9 nm wavelength argon laser 730 may be concentrated on the top of an SRSN resonator 710 through the PDMS wall of a micro microfluidic channel 720. The laser intensity of a focal plane is 20 W/cm^2 and may obtain strong PL emission including a characteristic cavity mode profile by stimulating silicon nano-clusters. The PL emission is collected through the side wall of the microfluidic channel 720 by an objective lens 750 (numerical aperture: 0.15). In this case, a transverse magnetic (TM) polarization component may be selectively captured by a polarity bond. […] The TM mode may be selectively measured as a cavity TM mode because the TM mode has a slot structure and can be firmly fixed compared to a TE mode. In this case, a beam splitter 740 may be configured between the argon laser 730 and the objective lens 750 and between the objective lens 750 and a CCD camera 760. A separate objective lens, a polarizer 770 and the spectrometer 780 may be configured for measurement.
The PL spectrum is measured after the state of a frequency movement is a saturation state.
In order to additionally research the developed detection device and to analyze the influence of the nano-slot structure on molecule dynamics, a time-excessive operation of a frequency movement caused by an interaction was measured. […] Such a time shift of the frequency movement may be understood based on the Langmuir model. This is commonly used to analyze the kinetics of a surface bonding reaction in a system in which a ligand has been fixed to a firm surface. A fraction proportional to a bio sensor signal may be defined as the number of ligands and analysis complexes based on the Langmuir model, and may be divided by a total number of ligands represent in the following equation in a connection step.
[formula] in the saturation state. In FIG. 10A, a solid line indicates a suitable curve of Equation 7 for measured data points. In this curve, values of kon^obs and fbeq(c) can be obtained. Kd, kon and koff can be derived by substituting the two values with Equation 8 and Equation 9 and solving both the equations at the same time.

Substance | frequency movement (1 mg/mL, flowed 35 minutes over the biotin-processed resonator, control experiment) [nm] | peak shift (streptavidin 144 nM, saturation state (FIG. 9B)) [nm] | association rate (streptavidin concentration 9 nM in DPBS) [M⁻¹ s⁻¹] | association rate (streptavidin concentration 36 nM in DPBS) [M⁻¹ s⁻¹] | association rate (streptavidin concentration 54 nM in DPBS) [M⁻¹ s⁻¹] | association rate (streptavidin concentration 90 nM in DPBS) [M⁻¹ s⁻¹] | connection ratio / association rate (streptavidin-biotin complex, real-time bonding, Langmuir model) [M⁻¹ s⁻¹] | koff (streptavidin-biotin complex, saturation state (FIG. 10B)) [s⁻¹] | Kd (streptavidin-biotin complex, saturation state, Hill model fit (FIG. 10B), read-out: Kd) [µM] | Kd (streptavidin-biotin complex, read-out: separation constant) [µM]
Bovine Serum Albumin [BSA] | 0.25 | – | – | – | – | – | – | – | – | –
streptavidin | – | 1.72 | 12000 | 4200 | 3200 | 6400 | 0.0003 | 0.014 | 0.38 | 0.38
